# Measured values reported in PubChem BioAssay (NCI).
#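 Cultured in 96-well plates, cells were exposed to test compound for 48 hours across five concentrations. TGI is the concentration that stops growth completely.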
# What was measured:
# Assay in all cases: inhibition of tumour cell growth, NCI panel, 48 h
# 786-0 renal = tested on: 786-0 renal
# A498 renal = tested on: A498 renal
# A549 NSCLC = tested on: A549 NSCLC
# ACHN renal = tested on: ACHN renal
# CAKI-1 renal = tested on: CAKI-1 renal
# CCRF-CEM leukemia = tested on: CCRF-CEM leukemia
# COLO 205 colon = tested on: COLO 205 colon
# DLD-1 colon = tested on: DLD-1 colon
# DMS 114 small cell lung = tested on: DMS 114 small cell lung
# DMS 273 small cell lung = tested on: DMS 273 small cell lung
# EKVX NSCLC = tested on: EKVX NSCLC
# HCC-2998 colon = tested on: HCC-2998 colon
# HCT-116 colon = tested on: HCT-116 colon
# HCT-15 colon = tested on: HCT-15 colon
# HL-60(TB) leukemia = tested on: HL-60(TB) leukemia
# HOP-18 NSCLC = tested on: HOP-18 NSCLC
# HOP-62 NSCLC = tested on: HOP-62 NSCLC
# HOP-92 NSCLC = tested on: HOP-92 NSCLC
# HT29 colon = tested on: HT29 colon
# IGROV1 ovarian = tested on: IGROV1 ovarian
# K-562 leukemia = tested on: K-562 leukemia
# KM12 colon = tested on: KM12 colon
# KM20L2 colon = tested on: KM20L2 colon
# LOX IMVI melanoma = tested on: LOX IMVI melanoma
# LXFL 529 NSCLC = tested on: LXFL 529 NSCLC
# M14 melanoma = tested on: M14 melanoma
# M19-MEL melanoma = tested on: M19-MEL melanoma
# MALME-3M melanoma = tested on: MALME-3M melanoma
# MOLT-4 leukemia = tested on: MOLT-4 leukemia
# NCI-H226 lung = tested on: NCI-H226 lung
# NCI-H23 lung = tested on: NCI-H23 lung
# NCI-H460 lung = tested on: NCI-H460 lung
# NCI-H522 lung = tested on: NCI-H522 lung
# OVCAR-3 ovarian = tested on: OVCAR-3 ovarian
# OVCAR-4 ovarian = tested on: OVCAR-4 ovarian
# OVCAR-5 ovarian = tested on: OVCAR-5 ovarian
# OVCAR-8 ovarian = tested on: OVCAR-8 ovarian
# RPMI-8226 leukemia = tested on: RPMI-8226 leukemia
# RXF 393 renal = tested on: RXF 393 renal
# RXF-631 renal = tested on: RXF-631 renal
# SF-268 CNS = tested on: SF-268 CNS
# SF-295 CNS = tested on: SF-295 CNS
# SF-539 CNS = tested on: SF-539 CNS
# SK-MEL-2 melanoma = tested on: SK-MEL-2 melanoma
# SK-MEL-28 melanoma = tested on: SK-MEL-28 melanoma
# SK-MEL-5 melanoma = tested on: SK-MEL-5 melanoma
# SK-OV-3 ovarian = tested on: SK-OV-3 ovarian
# SN12C renal = tested on: SN12C renal
# SNB-19 CNS = tested on: SNB-19 CNS
# SNB-75 CNS = tested on: SNB-75 CNS
# SNB-78 CNS = tested on: SNB-78 CNS
# SR leukemia = tested on: SR leukemia
# SW-620 colon = tested on: SW-620 colon
# TK-10 renal = tested on: TK-10 renal
# U251 CNS = tested on: U251 CNS
# UACC-257 melanoma = tested on: UACC-257 melanoma
# UACC-62 melanoma = tested on: UACC-62 melanoma
# UO-31 renal = tested on: UO-31 renal
# XF 498 CNS = tested on: XF 498 CNS
smiles,measurement,setting,value
COc1ccc(NCc2cc(OC)cc(OC)c2)cc1,TGI,786-0 renal,> 100 µM
same,TGI,A498 renal,> 100 µM
same,TGI,A549 NSCLC,> 100 µM
same,TGI,ACHN renal,> 100 µM
same,TGI,CAKI-1 renal,> 100 µM
same,TGI,CCRF-CEM leukemia,> 92.6 µM
same,TGI,COLO 205 colon,27.4 µM
same,TGI,DLD-1 colon,> 100 µM
same,TGI,DMS 114 small cell lung,> 100 µM
same,TGI,DMS 273 small cell lung,> 70.4 µM
same,TGI,EKVX NSCLC,> 100 µM
same,TGI,HCC-2998 colon,57.9 µM
same,TGI,HCT-116 colon,57.3 µM
same,TGI,HCT-15 colon,> 100 µM
same,TGI,HL-60(TB) leukemia,32.9 µM
same,TGI,HOP-18 NSCLC,> 100 µM
same,TGI,HOP-62 NSCLC,> 100 µM
same,TGI,HOP-92 NSCLC,> 100 µM
same,TGI,HT29 colon,> 100 µM
same,TGI,IGROV1 ovarian,> 100 µM
same,TGI,K-562 leukemia,> 84.6 µM
same,TGI,KM12 colon,> 64.9 µM
same,TGI,KM20L2 colon,38.1 µM
same,TGI,LOX IMVI melanoma,> 100 µM
same,TGI,LXFL 529 NSCLC,> 100 µM
same,TGI,M14 melanoma,> 100 µM
same,TGI,M19-MEL melanoma,> 100 µM
same,TGI,MALME-3M melanoma,> 100 µM
same,TGI,MOLT-4 leukemia,> 100 µM
same,TGI,NCI-H226 lung,> 100 µM
same,TGI,NCI-H23 lung,> 95.5 µM
same,TGI,NCI-H460 lung,> 84.6 µM
same,TGI,NCI-H522 lung,56.7 µM
same,TGI,OVCAR-3 ovarian,> 59.3 µM
same,TGI,OVCAR-4 ovarian,82.1 µM
same,TGI,OVCAR-5 ovarian,77.7 µM
same,TGI,OVCAR-8 ovarian,> 100 µM
same,TGI,RPMI-8226 leukemia,61.6 µM
same,TGI,RXF 393 renal,69.8 µM
same,TGI,RXF-631 renal,> 100 µM
same,TGI,SF-268 CNS,> 91 µM
same,TGI,SF-295 CNS,> 100 µM
same,TGI,SF-539 CNS,54.2 µM
same,TGI,SK-MEL-2 melanoma,> 82.7 µM
same,TGI,SK-MEL-28 melanoma,> 100 µM
same,TGI,SK-MEL-5 melanoma,> 100 µM
same,TGI,SK-OV-3 ovarian,> 95.5 µM
same,TGI,SN12C renal,> 100 µM
same,TGI,SNB-19 CNS,> 100 µM
same,TGI,SNB-75 CNS,> 100 µM
same,TGI,SNB-78 CNS,61.8 µM
same,TGI,SR leukemia,> 100 µM
same,TGI,SW-620 colon,> 100 µM
same,TGI,TK-10 renal,> 100 µM
same,TGI,U251 CNS,> 85 µM
same,TGI,UACC-257 melanoma,> 100 µM
same,TGI,UACC-62 melanoma,> 100 µM
same,TGI,UO-31 renal,> 91.8 µM
same,TGI,XF 498 CNS,> 76.8 µM
